This is an account of results in patent publication US20200009262A1, “TARGETED CONSTRUCTS AND FORMULATIONS THEREOF” (TARVEDA THERAPEUTICS, INC., priority 2016, published 2020).

Where two headings read alike, the source gives them in different places.

For series [1], the system named is SW48 xenograft model (human colorectal cancer). Put plainly: Efficacy study in SW48 xenograft model, tumor growth inhibition. It counts as in vivo. To be noted: irinotecan 50 mg/kg once/week for two weeks. Here is the method:
Efficacy of Compound 3 was tested in an SW48 xenograft model (human colorectal cancer). Efficacies of the other compounds in Table 2 were also tested. All conjugates were dosed twice/week for two weeks.

Series [2] in a line: Once/week MTD. As to conditions: in vivo.
The nature of series [3]: In vivo half-life / NCA pharmacokinetics of albumin binding conjugates in rat plasma. Details: species or system rats. As to conditions: for half-life: iv, 1 mg/kg. Here is the method: Compound 3 and Compound 4 were administered to rats at 1 mg/kg via IV. […] Therefore, the concentration of Compound 3′ is measured after treating plasma samples at a low pH.
The subject of series [4] is SW48 cells. Put plainly: IC50 in SW48 cells. In kind it is cell-based, human.
Series [5] can be described thus: Blood pressure study, tail cuff, 10 minute intravenous infusion. In kind it is in vivo, Sprague Dawley rats. As to conditions: 400 nmol/kg infused over 10 minutes; significant drop = drop of at least 10%.
Description: An external pumping device was used to deliver the target dose volume for each animal over a 10 minute dosing interval. Blood pressure was measured by tail cuff using the CODA Non-Invasive Blood Pressure system. Animals were placed in restrainers with the tail cuff on. The animals and the restrainers were then placed on a heating pad for approximately 5 minutes. Following the 5 minute heating pad acclimation an additional acclimation data collection took place prior to dose initiation for approximately 5 minutes. Blood pressure data began at dose initiation and was collected through at least 30 minutes postdose. […] Test articles were infused over 10 minutes. The start and stop times for the following processes were documented. The following parameters were collected: diastolic pressure, systolic pressure, mean blood pressure, heart rate, tail blood flow, and tail blood volume.
The conditions of series [6]: transthyretin, 55 KDa serum protein, background statement; cited from earlier work.
[7] abbreviates: Day 4, conjugates twice/week for two weeks (3, 4, 7, 8: 2.0 mg/kg; 5, 6: 0.025 mg/kg).
[8] abbreviates: Day 8, conjugates twice/week for two weeks (3, 4, 7, 8: 2.0 mg/kg; 5, 6: 0.025 mg/kg).
Setting [9] is: Day 10, conjugates 2.0 mg/kg twice/week for two weeks.
[10] abbreviates: Day 14, conjugates 2.0 mg/kg twice/week for two weeks.
Where [11] appears, read: Day 17, conjugates 2.0 mg/kg twice/week for two weeks.
Where [12] appears, read: Day 21, conjugates 2.0 mg/kg twice/week for two weeks.
The mark [13] stands for this setting: in vivo, IV 1.0 mg/kg, plasma, measured as Compound 3′ after low pH treatment.

`COc1cc2cc(c1Cl)N(C)C(=O)C[C@H](OC(=O)[C@H](C)N(C)C(=O)CCSC1CC(=O)N(CCCNC(=O)CNC(=O)[C@H](CC(C)C)NC(=O)[C@H](Cc3ccccc3)NC(=O)CNC(=O)CCC(=O)NCCCC[C@H](NC(C)=O)C(=O)N3CCC[C@H]3CN[C@@H](CC(C)C)C(=O)N3CCC[C@H]3C(=O)N(C)[C@@H](CCCNC(=N)N)C(=O)N[C@H](C(=O)N[C@@H](CCCNC(=N)N)C(=O)N[C@@H](Cc3ccc(O)cc3)C(=O)O)C(C)(C)C)C1=O)[C@]1(C)O[C@H]1[C@H](C)[C@@H]1C[C@@](O)(NC(=O)O1)[C@H](OC)/C=C/C=C(\C)C2` (stereo partly drawn) [Compound 7]: the TGI % in series [1] (setting [7]) is reported as −11%; in series [1] (setting [8]), −22.6%; in series [1] (setting [9]) it was −29.7%; in series [1] (setting [10]), −32%; in series [1] (setting [11]), −48.3%; in series [1] (setting [12]), −52.8%. In series [2], this molecule returned an MTD of over 8 mg/kg.
Turning to `COc1cc2cc(c1Cl)N(C)C(=O)C[C@H](OC(=O)[C@H](C)N(C)C(=O)CCSC1CC(=O)N(CCCNC(=O)CNC(=O)[C@H](CC(C)C)NC(=O)[C@H](Cc3ccccc3)NC(=O)CNC(=O)CCC(=O)NCCCC[C@H](NC(C)=O)C(=O)N3CCC[C@H]3C(=O)N(C)[C@@H](CCCNC(=N)N)C(=O)N[C@@H](CCCNC(=N)N)C(=O)N3CCC[C@H]3C(=O)N[C@@H](Cc3ccc(O)cc3)C(=O)N[C@H](C(=O)N[C@@H](CC(C)C)C(=O)O)C(C)(C)C)C1=O)[C@]1(C)O[C@H]1[C@H](C)[C@@H]1C[C@@](O)(NC(=O)O1)[C@H](OC)/C=C/C=C(\C)C2` (stereo partly drawn) [Compound 4], in series [3] (IV 1 mg/kg, FIG. 3), the “degradation in rat plasma compared with albumin bound Compound 3” value is reported as “degraded faster”. Moreover, in series [4], the IC50 (commonly the concentration that gives 50% inhibition) was 3.7 nM. Also, the MTD in series [2] is over 8 mg/kg. In addition, in series [5], the “mean blood pressure change” value is recorded as “significant drop in mean blood pressure”.
Regarding `COc1ccc(C2=CN3C(=O)c4cc(OC)c(OCCCOc5cc6c(cc5OC)C(=O)N5C=C(c7ccc(NC(=O)[C@H](C)NC(=O)[C@@H](NC(=O)CCCCCN8C(=O)CC(SCCC(=O)NCCCC[C@H](NC(C)=O)C(=O)N9CCC[C@H]9C(=O)N(C)[C@@H](CCCNC(=N)N)C(=O)N[C@@H](CCCNC(=N)N)C(=O)N9CCC[C@H]9C(=O)N[C@@H](Cc9ccc(O)cc9)C(=O)N[C@H](C(=O)N[C@@H](CC(C)C)C(=O)O)C(C)(C)C)C8=O)C(C)C)cc7)C[C@H]5C=N6)cc4N=C[C@@H]3C2)cc1` (stereo partly drawn) [Compound 5], the values for the TGI % in series [1] (setting [7]) and in series [1] (setting [8]) were 21.3% and 45.9%, respectively. In series [4], this molecule registered an IC50 of 1.8 nM. The molecule also registered an MTD in series [2] of 0.05 mg/kg.
`COc1ccc(C2=CN3C(=O)c4cc(OC)c(OCCCOc5cc6c(cc5OC)C(=O)N5C=C(c7ccc(NC(=O)[C@H](C)NC(=O)[C@@H](NC(=O)CCCCCN8C(=O)CC(SCCC(=O)NCCCC[C@H](NC(C)=O)C(=O)N9CCC[C@H]9C(=O)N[C@@H](CC(C)C)C(=O)N9CCC[C@H]9C(=O)N(C)[C@@H](CCCNC(=N)N)C(=O)N[C@H](C(=O)N[C@@H](CCCNC(=N)N)C(=O)N[C@@H](Cc9ccc(O)cc9)C(=O)O)C(C)(C)C)C8=O)C(C)C)cc7)C[C@H]5C=N6)cc4N=C[C@@H]3C2)cc1` (stereo partly drawn) [Compound 6]: the figures for the TGI % in series [1] (setting [7]) and in series [1] (setting [8]) were 22.2% and 28.3%, respectively. This molecule gave an IC50 in series [4] of 4 nM. The molecule also registered an MTD in series [2] of 0.05 mg/kg.
`COc1cc2cc(c1Cl)N(C)C(=O)C[C@H](OC(=O)[C@H](C)N(C)C(=O)CCSC1CC(=O)N(CCCNC(=O)CNC(=O)[C@H](CC(C)C)NC(=O)[C@H](Cc3ccccc3)NC(=O)CNC(=O)CCC(=O)NCCCC[C@H](NC(=O)c3ccc(/C(C)=N/NC(=O)CCCCCN4C(=O)C=CC4=O)cc3)C(=O)N3CCC[C@H]3C(=O)N(C)[C@@H](CCCNC(=N)N)C(=O)N[C@@H](CCCNC(=N)N)C(=O)N3CCC[C@H]3C(=O)N[C@@H](Cc3ccc(O)cc3)C(=O)N[C@H](C(=O)N[C@@H](CC(C)C)C(=O)O)C(C)(C)C)C1=O)[C@]1(C)O[C@H]1[C@H](C)[C@@H]1C[C@@](O)(NC(=O)O1)[C@H](OC)/C=C/C=C(\C)C2` (stereo partly drawn) [Compound 3]: the “rat plasma half-life relative to Compound 4 (does not bind albumin)” value in series [3] (IV 1 mg/kg) was 80 fold. Further, in series [3] (setting [13]), the AUC (in general, the area under the concentration-time curve, a measure of exposure) came out at 33.7 µM·h; the area under the curve AUC(0-inf) – broadly, the area under the concentration-time curve extrapolated to infinity – stood at 39.3 µM·h; the peak level (Cmax) was 4.69 µM; the clearance (in general, the rate of elimination divided by the concentration) is 0.16 mL/min/kg. Further, the Vd in series [3] (in vivo, IV 1.0 mg/kg, plasma, measured as Compound 3′ after low pH treatment, read-out: Vss) was determined as 0.107 L/kg. In addition, the half-life in series [3] (in vivo, IV 1.0 mg/kg, plasma, measured as Compound 3′ after low pH treatment of plasma samples, read-out: t½ (converted)) is 9.32 h. Also, the half-life in series [3] (in vivo, IV 1 mg/kg, read-out: rat plasma half-life (converted)) was 9.3 h. In series [2], this molecule had an MTD of 4 to 8 mg/kg. In addition, the “mean blood pressure change” value in series [5] is recorded as “no significant drop in mean blood pressure”.
As to Transthyretin, the in vivo half-life result in series [6] is recorded as “around 48 h”.
Consider `CCc1c2c(nc3ccc(OC(=O)N4CCC(N5CCCCC5)CC4)cc13)-c1cc3c(c(=O)n1C2)COC(=O)[C@]3(O)CC` [Irinotecan, irinotecan, reference compound], for which the TGI % was determined as 10% in series [1] (setting [8]); 12.8% in series [1] (setting [9]); 33% in series [1] (setting [10]); 34.9% in series [1] (setting [11]); 33.9% in series [1] (setting [12]). In addition, in series [2], the MTD was found to be 50 mg/kg.
